The target in series [1] is T1, Receptor-type tyrosine-protein kinase FLT3 (Homo sapiens, UniProt P36888). Nature of the series: Inhibition of FLT3 phosphorylation at Tyr589/591 residues in human MV4-11 cells after 4 hrs by Western blot analysis. Format: cell-based.
For series [2], the system named is MV4-11. Put plainly: Induction of apoptosis in human MV4-11 cells assessed as necrotic cells at 0.5 uM after 24 hrs by Annexin V-FITC/propidium iodide staining based flow cytometry (reference value: 0%). The format is functional.
In series [3] the target is Receptor-type tyrosine-protein kinase FLT3 (Homo sapiens, UniProt P36888, D835V/ITD). Put plainly: Binding affinity to human FLT3 ITD/D835V double mutant expressed in bacterial expression system by Kinomescan method.
The target of series [4] is CDK2 (cyclin-dependent kinase 2) (Homo sapiens, UniProt P24941). Nature of the series: Inhibition of CDK2 (unknown origin) assessed as residual activity at 0.123 uM by Hotspot assay relative to control. The conditions noted are these: CDK2 enzyme (unknown origin), read-out: Activity.
In series [5] the target is Receptor-type tyrosine-protein kinase FLT3 (Homo sapiens, UniProt P36888, ITD). Nature of the series: Inhibition of human FLT3 ITD-NPOS mutant by Hotspot assay.
In series [6] the target is Receptor-type tyrosine-protein kinase FLT3 (Homo sapiens, UniProt P36888, D835Y). Nature of the series: Binding affinity to human FLT3 D835Y mutant (Q580 to Y969 residues) expressed in bacterial expression system by Kinomescan method.
In series [7] the target is Vascular endothelial growth factor receptor 3 (Homo sapiens, UniProt P35916). Nature of the series: Inhibition of human FLT4 at 0.123 uM by Hotspot assay relative to control.
Series [8] has as its system MV4-11. Nature of the series: Induction of apoptosis in human MV4-11 cells assessed as late apoptotic cells at 0.2 uM after 24 hrs by Annexin V-FITC/propidium iodide staining based flow cytometry (reference value: 0%). The format is functional.
For the next series, the system named is MOLM-13. Put plainly: Growth inhibition of human MOLM13 cells harboring FLT3-ITD after 72 hrs by Cell-Titer Glo assay. Format: functional, cell-based. The conditions noted are these: MOLM-13, 72 h.
In series [9] the target is T1, Receptor-type tyrosine-protein kinase FLT3. Put plainly: Inhibition of human FLT3 F594_R595insR mutant by Hotspot assay.
The target is the same in series [10]. Put plainly: Inhibition of FLT3 in human MV4-11 cells assessed as reduction in AKT phosphorylation at Ser473 residue after 4 hrs by Western blot analysis. The format is cell-based.

Vascular endothelial growth factor receptor 3, sequence (P35916 whole entry): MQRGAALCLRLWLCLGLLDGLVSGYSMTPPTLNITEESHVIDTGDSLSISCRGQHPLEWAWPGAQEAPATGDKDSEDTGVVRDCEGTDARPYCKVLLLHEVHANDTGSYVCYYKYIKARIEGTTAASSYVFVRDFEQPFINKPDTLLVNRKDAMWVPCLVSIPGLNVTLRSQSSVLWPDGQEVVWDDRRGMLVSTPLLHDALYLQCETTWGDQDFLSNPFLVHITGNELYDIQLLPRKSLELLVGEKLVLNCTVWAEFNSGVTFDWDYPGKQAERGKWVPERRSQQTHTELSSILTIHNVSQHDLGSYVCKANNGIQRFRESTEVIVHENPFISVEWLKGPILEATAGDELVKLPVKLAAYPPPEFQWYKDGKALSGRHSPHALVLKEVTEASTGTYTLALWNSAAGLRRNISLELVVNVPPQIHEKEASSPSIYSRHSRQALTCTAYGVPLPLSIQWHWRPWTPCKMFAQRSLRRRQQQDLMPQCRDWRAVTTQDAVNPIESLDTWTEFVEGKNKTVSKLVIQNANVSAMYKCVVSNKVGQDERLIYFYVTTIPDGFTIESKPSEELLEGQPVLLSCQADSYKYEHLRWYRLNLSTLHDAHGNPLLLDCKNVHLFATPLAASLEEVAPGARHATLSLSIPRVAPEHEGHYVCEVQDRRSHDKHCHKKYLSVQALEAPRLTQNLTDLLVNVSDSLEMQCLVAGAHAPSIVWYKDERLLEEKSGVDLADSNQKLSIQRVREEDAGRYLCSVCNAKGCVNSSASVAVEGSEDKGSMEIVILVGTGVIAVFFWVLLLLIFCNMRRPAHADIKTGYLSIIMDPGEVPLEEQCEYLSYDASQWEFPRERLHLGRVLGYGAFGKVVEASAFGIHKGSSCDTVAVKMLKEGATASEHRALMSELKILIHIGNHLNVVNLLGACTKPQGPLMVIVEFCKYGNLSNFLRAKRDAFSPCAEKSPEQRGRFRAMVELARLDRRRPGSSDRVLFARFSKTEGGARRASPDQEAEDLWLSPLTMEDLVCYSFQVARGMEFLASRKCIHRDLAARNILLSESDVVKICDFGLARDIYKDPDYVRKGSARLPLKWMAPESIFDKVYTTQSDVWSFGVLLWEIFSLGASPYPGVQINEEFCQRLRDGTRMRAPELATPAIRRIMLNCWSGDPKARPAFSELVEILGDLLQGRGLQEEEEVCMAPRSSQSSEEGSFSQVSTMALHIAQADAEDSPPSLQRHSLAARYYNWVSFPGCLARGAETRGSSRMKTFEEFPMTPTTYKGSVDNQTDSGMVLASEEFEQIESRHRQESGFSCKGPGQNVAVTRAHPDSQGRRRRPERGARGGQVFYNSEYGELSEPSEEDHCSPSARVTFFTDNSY

On to `Cc1nc2c(c(Nc3c[nH]nc3C(=O)Nc3ccc(N4CCNCC4)cc3)n1)CCC2`, for which the inhibition result in [1] was “Dose-dependent effect”; in [7], above 50%; in [10], “Dose-dependent effect”. For the same compound, the Activity in the series on MV4-11 [2] was 0.83%; in the series on MV4-11 [8], 12.8%. Further, the figures for the Kd in series [3] and in series [6] were 3.7 nM and 5.33 nM, respectively. Moreover, the activity at 0.123 µM in [4] was determined as 86.3%. In addition, the IC50 was found to be 14.9 nM in series [5], 37 nM with MOLM-13 and 6.97 nM in series [9].

These data come from ChEMBL document CHEMBL4152300, “Discovery of the selective and efficacious inhibitors of FLT3 mutations” (Eur J Med Chem, 2018).
